In patent publication US20240041042A1, “1-(PYRIDYL)-5-AZINYLPYRAZOLE DERIVATIVES, AND THEIR USE FOR CONTROL OF UNDESIRED PLANT GROWTH” (Bayer Aktiengesellschaft, priority 2020, published 2024):
Where two headings read alike, the source gives them in different places.

Columns and labels:
Format in all cases: in vivo
Oryza sativa (ORYSA) = conditions: crop plant compatibility
Method in brief: (§1)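 Effects were read visually as % versus untreated controls (0% = no effect, 100% = death) about 3 weeks post-treatment. Application was a post-emergence spray at the one-leaf stage of WP/EC formulations with 0.5% additive at 600 l/ha. Different dosages are denoted a, b and c.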

[1] = test system: Abutilon theophrasti (ABUTH); experiment: Post-emergence herbicidal action against ABUTH; conditions: 320 g/ha, visual rating about 3 weeks after treatment vs untreated controls (100% = plants have died, 0% = like control plants)
Method in brief: (§2)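 Post-emergence greenhouse spray, one-leaf stage, 600 l/ha water plus 0.5% additive; WP or EC formulations; application rates 320 g/ha or lower. Visual % damage vs untreated controls at ~3 weeks.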

Lolium rigidum (LOLRI) [2] = experiment: Post-emergence herbicidal action against LOLRI
Method in brief: as §2

[3] = test system: Verconica persica (VERPE); experiment: Post-emergence herbicidal action against VERPE
Method in brief: as §2

[4] = test system: Alopecurus myosuroides (ALOMY); experiment: Post-emergence herbicidal action against ALOMY; conditions: visual rating about 3 weeks after treatment vs untreated controls (100% = plants have died, 0% = like control plants)
Method in brief: as §2

Setaria viridis (SETVI) [5] = experiment: Post-emergence herbicidal action against SETVI
Method in brief: as §2

Zea mays (ZEAMX) [6] = conditions: pre-emergence, 80 g/ha, crop plant compatibility, in comparison to untreated controls
Excerpt: Seeds of monocotyledonous and dicotyledonous weed plants and crop plants are placed in plastic or organic planting pots and covered with soil. The compounds of the invention, formulated in the form of wettable powders (WP) or as emulsion concentrates (EC), are then applied to the surface of the covering soil as aqueous suspension or emulsion with addition of 0.5% additive at a water application rate equivalent to 600 l/ha. After the treatment, the pots are placed in a greenhouse and kept under good growth conditions for the trial plants. After about 3 weeks, the effect of the preparations is scored visually in comparison with untreated controls as percentages. For example, 100% activity=the plants have died, 0% activity=like control plants.
The observed effects on selected crop plants are reported here in comparison to the untreated controls (values in %). The appendices “a” “b” and “c” give differentiation by dosage used with otherwise the same crop plants tested.

Viola tricolor (VIOTR) [7] = experiment: Pre-emergence herbicidal action against VIOTR
Method in brief: (§3)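 Pre-emergence soil-surface spray, WP/EC formulation, 0.5% additive, 600 l/ha water, rates of 320 g/ha or lower. Greenhouse, ~3 wk. Visual score, % of untreated control (100% = plants dead, 0% = like control).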

Viola tricolor (VIOTR) [8] = experiment: Post-emergence herbicidal action against VIOTR
Method in brief: as §2

[9] = test system: Polygonum convolvulus (POLCO); experiment: Post-emergence herbicidal action against POLCO
Method in brief: as §2

[10] = test system: Verconica persica (VERPE); experiment: Pre-emergence herbicidal action against VERPE
Method in brief: as §3

[11] = test system: Amaranthus retroflexus (AMARE); experiment: Pre-emergence herbicidal action against AMARE; conditions: visual scoring after about 3 weeks vs untreated controls
Method in brief: as §3

[12] = test system: Matricaria inodora (MATIN); experiment: Pre-emergence herbicidal action against MATIN; conditions: dosage 320 g/ha
Method in brief: as §3

[13] = test system: Alopecurus myosuroides (ALOMY); experiment: Pre-emergence herbicidal action against ALOMY; conditions: scored visually after about 3 weeks, 100% = plants have died
Method in brief: as §3

Avena fatua (AVEFA) [14] = experiment: Post-emergence herbicidal action against AVEFA; conditions: visual rating about 3 weeks after treatment
Method in brief: as §2

Setaria viridis (SETVI) [15] = experiment: Pre-emergence herbicidal action against SETVI
Method in brief: as §3

Lolium rigidum (LOLRI) [16] = experiment: Pre-emergence herbicidal action against LOLRI
Method in brief: as §3

Avena fatua (AVEFA) [17] = experiment: Pre-emergence herbicidal action against AVEFA; conditions: 320 g/ha, visual scoring after about 3 weeks vs untreated controls
Method in brief: as §3

[18] = test system: Echinochloa crus-galli (ECHCG); experiment: Post-emergence herbicidal action against ECHCG
Method in brief: as §2

[19] = test system: Amaranthus retroflexus (AMARE); experiment: Post-emergence herbicidal action against AMARE
Method in brief: as §2

[20] = test system: Polygonum convolvulus (POLCO); experiment: Pre-emergence herbicidal action against POLCO
Method in brief: as §3

[21] = test system: Echinochloa crus-galli (ECHCG); experiment: Pre-emergence herbicidal action against ECHCG; conditions: dosage 320 g/ha
Method in brief: as §3

Zea mays (ZEAMX) [22] = conditions: 20 g/ha, ZEAMX, effect in comparison to untreated controls
Method in brief: as §1

[23] = test system: Pharbitis purpurea (PHBPU); experiment: Pre-emergence herbicidal action against PHBPU; conditions: dosage 320 g/ha
Method in brief: as §3

[24] = test system: Matricaria inodora (MATIN); experiment: Post-emergence herbicidal action against MATIN; conditions: dosage 80 g/ha
Method in brief: as §2

[25] = 80 g/ha, effect in comparison to untreated controls
[26] = 80 g/ha, visual rating about 3 weeks after treatment vs untreated controls (100% = plants have died, 0% = like control plants)
[27] = 20 g/ha, effect vs untreated controls

Row | SMILES | Post-emergence action against ORYSA in % (Oryza sativa (ORYSA); [25]) [%] | Post-emergence action against VERPE in % ([3]; dosage 80 g/ha) [%] | Post-emergence action against ALOMY in % ([4]; 80 g/ha) [%] | Pre-emergence action against ZEAMX in % (Zea mays (ZEAMX) [6]) [%] | Pre-emergence action against VIOTR in % (Viola tricolor (VIOTR) [7]; 320 g/ha, Viola tricolor) [%] | Pre-emergence action against VIOTR in % (Viola tricolor (VIOTR) [7]; dosage 80 g/ha) [%] | Pre-emergence action against VERPE in % ([10]; dosage 320 g/ha) [%] | Pre-emergence action against AMARE in % ([11]; 80 g/ha) [%] | Pre-emergence action against AMARE in % ([11]; 320 g/ha) [%] | Pre-emergence action against MATIN in % [12] [%] | Pre-emergence action against ALOMY ([13]; 320 g/ha) [%] | Pre-emergence action against SETVI in % (Setaria viridis (SETVI) [15]; dosage 320 g/ha) [%] | Pre-emergence action against LOLRI in % (Lolium rigidum (LOLRI) [16]; dosage 320 g/ha) [%] | Pre-emergence action against AVEFA in % (Avena fatua (AVEFA) [17]) [%] | Post-emergence action against ECHCG in % ([18]; dosage 80 g/ha) [%] | Post-emergence action against AMARE in % [19, 26] [%] | Pre-emergence action against POLCO in % ([20]; dosage 80 g/ha) [%] | Pre-emergence action against POLCO in % ([20]; dosage 320 g/ha) [%] | Pre-emergence action against ECHCG in % [21] [%] | Post-emergence action against ZEAMX in % (crop plant compatibility) (Zea mays (ZEAMX) [22]) [%] | other results
1 | CCOC(=O)[C@@H](C)Oc1nn(-c2ncccc2Cl)c(-c2ccc(F)nc2)c1Br [Example I-27] | 0 | 80 | 80 | 20 | 100 | 100 | 100 | 90 | 100 | 80 | 100 | 100 | 100 | 100 | 90 | 90 | 90 | 100 | 100 | – | Post-emergence action against ABUTH in % [1]: 90%; Post-emergence action against LOLRI in % (Lolium rigidum (LOLRI) [2]; dosage 80 g/ha): 90%; Post-emergence action against LOLRI in % (Lolium rigidum (LOLRI) [2]; dosage 320 g/ha): 90%; Post-emergence action against VERPE in % ([3]; 320 g/ha, VERPE): 90%; Post-emergence action against ALOMY in % ([4]; 320 g/ha): 100%; Post-emergence action against SETVI in % (Setaria viridis (SETVI) [5]; dosage 320 g/ha): 90%; Post-emergence action against VIOTR in % (Viola tricolor (VIOTR) [8]; 80 g/ha): 80%; Post-emergence action against VIOTR in % (Viola tricolor (VIOTR) [8]; 320 g/ha): 80%; Post-emergence action against POLCO in % ([9]; dosage 80 g/ha): 80%; Post-emergence action against POLCO in % ([9]; dosage 320 g/ha): 80%; Pre-emergence action against VERPE in % ([10]; dosage 80 g/ha): 80%; Post-emergence action against AVEFA in % (Avena fatua (AVEFA) [14]; 80 g/ha): 100%; Post-emergence action against AVEFA in % (Avena fatua (AVEFA) [14]; 320 g/ha): 100%; Pre-emergence action against LOLRI in % (Lolium rigidum (LOLRI) [16]; dosage 80 g/ha): 100%; Post-emergence action against ECHCG in % ([18]; dosage 320 g/ha): 90%; Post-emergence action against AMARE in % ([19]; 320 g/ha, visual rating about 3 weeks after treatment): 90%
2 | CC(C)N(C)S(=O)(=O)NC(=O)COc1nn(-c2ncccc2F)c(-c2ccc(F)nc2)c1Br [Example I-53] | – | 80 | 90 | 20 | 100 | 90 | 100 | 90 | 100 | 90 | 100 | 100 | 100 | 100 | 80 | 90 | – | 90 | 80 | 10 | Post-emergence action against ORYSA in % (Oryza sativa (ORYSA); [27]): 10%; Post-emergence action against SETVI in % (Setaria viridis (SETVI) [5]; dosage 80 g/ha): 80%; Pre-emergence action against ALOMY ([13]; 80 g/ha): 80%; Pre-emergence action against SETVI in % (Setaria viridis (SETVI) [15]; dosage 80 g/ha): 90%
3 | O=C(COc1nn(-c2ccccn2)c(-c2ccc(F)nc2)c1Br)OCC1CCCO1 (stereo not shown) [Example I-93] | 20 | 80 | 100 | 0 | 100 | – | 100 | 90 | 100 | 100 | 100 | 100 | 100 | 90 | – | 80 | 90 | 90 | 100 | 20 | Post-emergence action against ORYSA in % (Oryza sativa (ORYSA); [27]): 10%; Pre-emergence action against PHBPU in % [23]: 80%; Post-emergence action against MATIN in % [24]: 80%; Pre-emergence action against ALOMY ([13]; 80 g/ha): 90%
